# Data taken from patent publication US20160074421A1 (priority 2014, published 2016).
# Experiments:
# PTEN = PTEN (Homo sapiens, UniProt P60484); format: biochemical
# tight junction = tested on: tight junction; design: species or system BALB/c mice; conditions: mouse, in vivo, iv
# [1] = tested on: epithelial and endothelial tissues; conditions: in vivo
# PTEN, sequence (P60484 whole entry): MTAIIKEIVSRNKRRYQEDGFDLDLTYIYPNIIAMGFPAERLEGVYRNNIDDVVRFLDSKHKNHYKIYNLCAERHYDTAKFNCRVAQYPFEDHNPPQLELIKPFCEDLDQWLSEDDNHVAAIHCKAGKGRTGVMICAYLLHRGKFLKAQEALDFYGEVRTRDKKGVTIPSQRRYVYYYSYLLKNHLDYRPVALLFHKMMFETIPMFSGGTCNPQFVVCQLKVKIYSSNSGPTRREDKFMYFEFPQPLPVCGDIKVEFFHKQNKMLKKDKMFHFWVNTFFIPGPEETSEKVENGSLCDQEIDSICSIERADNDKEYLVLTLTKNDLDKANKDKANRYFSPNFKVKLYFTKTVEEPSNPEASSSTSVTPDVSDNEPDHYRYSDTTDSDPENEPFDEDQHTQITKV
substance,measurement,setting,value
zinc ions,activity of PTEN,PTEN,inhibit the activity of PTEN
"1-D-Myo-inositol 1,2,6-triphosphate [alpha trinositol]",effect on tight junction disturbance,tight junction,have a counterbalancing effect
"sodium salt of D-myo-inositol-1,2,6-trisphosphate",progressive deterioration of the structure and function of anatomical structures in epithelial and endothelial tissues,[1],prevented this deterioration
same,confirmation of the prevention of tissue deterioration,[1]; iv,confirmed
